Where two headings read alike, the source gives them in different places.
Legend:
[1] = target: T1, rhinovirus 3C protease from HRV serotype-14 (Human rhinovirus 14, UniProt P03303); test: Inhibition of rhinovirus 3C protease activity (FRET assay), HRV-14; type: biochemical; settings: read-out: Protease Inhibition kobs/I
T1 construct: Recombinant rhinovirus 3C proteases; made in house
Description: (§1) Stock solutions (50 mM, in DMSO) of various compounds were prepared; dilutions were in the same solvent. Recombinant rhinovirus 3C proteases (see Birch et al., “Purification of recombinant human rhinovirus 14 3C protease expressed in Escherichia coli,” Protein Expr. Pur. 1995, 6(5), 609–618) from serotypes 14, 16, and 2 were prepared by the following standard chromatographic procedures: (1) ion exchange using Q Sepharose Fast Flow from Pharmacia; (2) affinity chromatography using Affi-Gel Blue from Biorad; and (3) sizing using Sephadex G-100 from Pharmacia. Each assay sample contained 2% DMSO, 50 mM tris pH 7.6, 1 mM EDTA, a test compound at the indicated concentration, approximately 1 μM substrate, and 50–100 nM protease. The kobs/I values were obtained from reactions initiated by addition of enzyme rather than substrate. RVP activity was measured in the fluorescence resonance energy transfer assay. The substrate was (N-terminal) DABCYL-(Gly-Arg-Ala-Val-Phe-Gln-Gly-Pro-Val-Gly)-EDANS. In the uncleaved peptide, the EDANS fluorescence was quenched by the proximal DABCYL group. When the peptide was cleaved, the quenching was relieved, and activity was measured as an increase in fluorescence signal. In the Table, unless otherwise indicated, all data are for rhinovirus 3C protease from HRV serotype-14 (produced from the infectious cDNA clone constructed by Dr. Robert Rueckert, Institute for Molecular Virology, University of Wisconsin, Madison, Wis.). The data in the column designated kobs/[I] were measured from progress curves in enzyme start experiments.

[2] = test system: HRV-14; test: Antirhinoviral H1-HeLa cell culture assay (cell protection, XTT), HRV-14; type: cell-based, human rhinovirus; settings: read-out: Cell Protection EC50
Description: (§2) In this cell protection assay, the ability of compounds to protect cells against HRV infection was measured by the XTT dye reduction method, which is described in Weislow et al., J. Natl. Cancer Inst. 1989, vol. 81, 577–586.
(§3) H1-HeLa cells were infected with HRV-14 at a multiplicity of infection (m.o.i.) of 0.13 (virus particles/cell) or mock-infected with medium only. Infected or mock-infected cells were resuspended at 8×10^5 cells per mL, and incubated with appropriate concentrations of the compounds to be tested. Two days later, XTT/PMS was added to test plates and the amount of formazan produced was quantified spectrophotometrically at 450/650 nm. The EC50 value was calculated as the concentration of compound that increased the percentage of formazan production in compound-treated, virus-infected cells to 50% of that produced by compound-free, mock-infected cells. The 50% cytotoxic dose (CC50) was calculated as the concentration of compound that decreased the percentage of formazan produced in compound-treated, mock-infected cells to 50% of that produced by compound-free, mock-infected cells.
(§4) All strains of human rhinovirus (HRV) for use in this assay were purchased from American Type Culture Collection (ATCC), except for HRV serotype-14 (produced from the infectious cDNA clone constructed by Dr. Robert Rueckert, Institute for Molecular Virology, University of Wisconsin, Madison, Wis.). HRV stocks were propagated and viral assays were performed in H1-HeLa cells (ATCC). Cells were grown in minimal essential medium with 10% fetal bovine serum, available from Life Technologies (Gaithersburg, Md.).
(§5) The compounds were tested against control compounds WIN 51711, WIN 52084, and WIN 54954 (obtained from Sterling-Winthrop Pharmaceuticals), Pirodavir (obtained from Janssen Pharmaceuticals), and Pleconaril (prepared according to the method described in Diana et al., J. Med. Chem 1995, vol. 38, 1355). Antiviral data obtained for the test compounds are shown in the Table, where all data are for HRV serotype-14 unless otherwise noted in parentheses.

[3] = Cytotoxicity in mock-infected H1-HeLa cells (XTT); type: cell-based; settings: human, two days, read-out: Toxicity CC50
Description: as §2, §3, §4

[4] = test system: HRV-2; test: Antirhinoviral H1-HeLa cell culture assay (cell protection, XTT), HRV-2; type: cell-based, human rhinovirus; settings: Rhinovirus A, HRV2, 48 h, HRV-2, H1-HeLa cells, two days
Description: as §2, §3, §4, §5

[5] = target: T2, rhinovirus 3C protease (HRV-89) (Human rhinovirus A serotype 89, UniProt P07210); test: Inhibition of rhinovirus 3C protease activity (FRET assay), HRV-89; type: biochemical, human rhinovirus 89; settings: HRV-89 3C protease; progress curves, enzyme start; read-out: Protease Inhibition kobs/I
T2 construct: Recombinant rhinovirus 3C proteases
T2 sequence (P07210 1522-1704): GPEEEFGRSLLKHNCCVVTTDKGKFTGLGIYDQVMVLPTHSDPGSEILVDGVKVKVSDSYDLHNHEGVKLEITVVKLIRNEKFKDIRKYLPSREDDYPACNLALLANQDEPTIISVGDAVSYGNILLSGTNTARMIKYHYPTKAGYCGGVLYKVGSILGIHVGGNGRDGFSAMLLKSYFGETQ

[6] = target: T3, rhinovirus 3C protease (HRV-16) (Human rhinovirus 16, UniProt Q82122); test: Inhibition of rhinovirus 3C protease activity (FRET assay), HRV-16; type: biochemical; settings: HRV-16 3C protease; progress curves, enzyme start; read-out: Protease Inhibition kobs/I
T3 construct: Recombinant rhinovirus 3C proteases; made in house
T3 sequence (Q82122 1511-1693): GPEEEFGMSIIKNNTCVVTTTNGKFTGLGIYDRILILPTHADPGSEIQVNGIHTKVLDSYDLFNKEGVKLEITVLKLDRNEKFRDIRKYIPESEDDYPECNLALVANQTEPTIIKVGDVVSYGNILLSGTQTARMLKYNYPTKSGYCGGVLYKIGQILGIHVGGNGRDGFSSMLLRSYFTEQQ
Description: Stock solutions (50 mM, in DMSO) of various compounds were prepared; dilutions were in the same solvent. Recombinant rhinovirus 3C proteases (see Birch et al., “Purification of recombinant human rhinovirus 14 3C protease expressed in Escherichia coli,” Protein Expr. Pur. 1995, 6(5), 609–618) from serotypes 14, 16, and 2 were prepared by the following standard chromatographic procedures: (1) ion exchange using Q Sepharose Fast Flow from Pharmacia; (2) affinity chromatography using Affi-Gel Blue from Biorad; and (3) sizing using Sephadex G-100 from Pharmacia. Each assay sample contained 2% DMSO, 50 mM tris pH 7.6, 1 mM EDTA, a test compound at the indicated concentration, approximately 1 μM substrate, and 50–100 nM protease. The kobs/I values were obtained from reactions initiated by addition of enzyme rather than substrate. RVP activity was measured in the fluorescence resonance energy transfer assay. The substrate was (N-terminal) DABCYL-(Gly-Arg-Ala-Val-Phe-Gln-Gly-Pro-Val-Gly)-EDANS. In the uncleaved peptide, the EDANS fluorescence was quenched by the proximal DABCYL group. When the peptide was cleaved, the quenching was relieved, and activity was measured as an increase in fluorescence signal. […] The data in the column designated kobs/[I] were measured from progress curves in enzyme start experiments.

[7] = target: T4, rhinovirus 3C protease (HRV-2) (Human rhinovirus 2, UniProt P04936); test: Inhibition of rhinovirus 3C protease activity (FRET assay), HRV-2; type: biochemical; settings: read-out: Protease Inhibition kobs/I
T4 construct: Recombinant rhinovirus 3C proteases; made in house
T4 sequence (P04936 1508-1690): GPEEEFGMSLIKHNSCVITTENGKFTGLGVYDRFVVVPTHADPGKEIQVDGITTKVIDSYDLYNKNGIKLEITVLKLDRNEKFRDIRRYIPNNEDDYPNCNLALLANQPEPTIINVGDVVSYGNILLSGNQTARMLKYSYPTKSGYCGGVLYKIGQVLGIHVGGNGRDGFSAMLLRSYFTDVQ
Description: as §1

[8] = test system: HRV-1A; test: Antirhinoviral H1-HeLa cell culture assay (cell protection, XTT), HRV-1A; type: cell-based, human rhinovirus; settings: Rhinovirus A, HRV1A, 48 h, H1-HeLa cells, two days
Description: as §2, §3, §4, §5

[9] = test system: HRV-10; test: Antirhinoviral H1-HeLa cell culture assay (cell protection, XTT), HRV-10; type: cell-based; settings: Human rhinovirus sp., HRV10, 48 h, HRV-10, H1-HeLa cells, two days
Description: as §2, §3, §4, §5

[10] = test system: H1-HeLa cells; test: Cytotoxicity in mock-infected H1-HeLa cells (XTT); type: cell-based; settings: two days, read-out: Toxicity CC50
Description: as §2, §3, §4

[11] = HRV-14 3C protease, progress curves, enzyme start
[12] = Rhinovirus B, HRV14, 48 h, HRV-14, H1-HeLa cells, XTT, two days
[13] = Rhinovirus B, HRV14, H1-HeLa, 48 h

T1 sequence (P03303 1538-1719): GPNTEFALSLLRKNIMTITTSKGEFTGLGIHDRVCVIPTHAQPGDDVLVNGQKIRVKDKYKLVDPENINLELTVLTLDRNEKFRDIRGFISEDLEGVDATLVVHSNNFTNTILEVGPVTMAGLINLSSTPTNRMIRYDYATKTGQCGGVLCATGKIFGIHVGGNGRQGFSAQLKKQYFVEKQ

Structure (SMILES): CCOC(=O)/C=C/[C@H](CCC(N)=O)NC(=O)c1ccccc1COC(=O)c1ccccc1 [Compound 36]
- kinact/KI [1, 11]: 10 M⁻¹ s⁻¹
- EC50 [2, 12]: > 100 µM
- CC50 at 2 days [3]: > 100 µM

Structure (SMILES): CCOC(=O)/C=C/[C@H](C[C@@H]1CCNC1=O)NC(=O)Nc1cc(OC)cc(OC)c1 [Compound 57, 4S-[3-(3,5-dimethoxy-phenyl)ureido]-5-(2-oxo-pyrrolidin-3S-yl)-pent-2-enoic acid ethyl ester]
- kinact/KI [1]: 388 M⁻¹ s⁻¹
- EC50 [2, 13]: > 10 µM
- CC50 at 2 days [3]: > 10 µM

Structure (SMILES): CCOC(=O)/C=C/[C@H](C[C@@H]1CCNC1=O)NC(=O)c1cc2cc(CC)ccc2[nH]1 [Compound 8, 4S-[(5-ethyl-1H-indole-2-carbonyl)-amino]-5-(2-oxo-pyrrolidin-3S-yl)-pent-2-enoic acid ethyl ester]
- kinact/KI [1]: 980 M⁻¹ s⁻¹
- EC50 [2, 13]: 2.67 µM
- CC50 at 2 days [3]: > 10 µM

Structure (SMILES): CCOC(=O)/C=C/[C@H](CCC(N)=O)NC(=O)/C=C/c1ccccc1 [Compound 29, 6-carbamoyl-4S-(3-phenyl-acryloylamino)-hex-2-enoic acid ethyl ester]
- kinact/KI [1, 11]: 62 M⁻¹ s⁻¹
- EC50 [2, 12]: 31.6 µM
- CC50 at 2 days [3]: > 100 µM

Structure (SMILES): CCOC(=O)/C=C/[C@H](C[C@@H]1CCNC1=O)NC(=O)/C=C/c1ccc([N+](=O)[O-])cc1 [Compound 15, 4S-[3-(4-nitro-phenyl)-acryloylamino]-5-(2-oxo-pyrrolidin-3S-yl)-pent-2-enoic acid ethyl ester]
- kinact/KI [1]: 2020 M⁻¹ s⁻¹
- EC50 [2, 13]: 1.53 µM
- CC50 at 2 days [3]: > 10 µM

Structure (SMILES): CCOC(=O)/C=C/[C@H](C[C@@H]1CCNC1=O)NC(=O)COc1ccc(Cl)c(Cl)c1 [Compound 62, 4S-[2-(3,4-dichloro-phenoxy)-acetylamino]-5-(2-oxo-pyrrolidin-3S-yl)-pent-2-enoic acid ethyl ester]
- kinact/KI [1]: 134 M⁻¹ s⁻¹
- EC50 [2, 13]: 6.1 µM
- CC50 at 2 days [3]: > 10 µM

Structure (SMILES): CCOC(=O)/C=C/[C@H](C[C@@H]1CCNC1=O)NC(=O)c1cc2cc(Br)ccc2n1C [Compound 21, 4S-[(5-bromo-1-methyl-indole-2-carbonyl)-amino]-5-(2-oxo-pyrrolidin-3S-yl)-pent-2-enoic acid ethyl ester]
- kinact/KI [1]: 1320 M⁻¹ s⁻¹
- EC50 [2, 13]: 3.07 µM
- CC50 at 2 days [3]: 17.8 µM

Structure (SMILES): CCOC(=O)/C=C/[C@H](C[C@@H]1CCNC1=O)NC(=O)C1=Cc2cc(Cl)ccc2OC1 [Compound 44, 4S-[(6-Chloro-2H-chromene-3-carbonyl)-amino]-5-(2-oxo-pyrrolidin-3S-yl)-pent-2-enoic acid ethyl ester]
- EC50 [4]: 0.645 µM
- kinact/KI [1]: 19700 M⁻¹ s⁻¹
- kinact/KI [5]: 800 M⁻¹ s⁻¹
- kinact/KI [6]: 2200 M⁻¹ s⁻¹
- kinact/KI [7]: 385 M⁻¹ s⁻¹
- EC50 [8]: 5.1 µM
- EC50 [2, 13]: 0.16 µM
- CC50 at 2 days [3]: > 100 µM
- EC50 [9]: 0.459 µM

Structure (SMILES): CCOC(=O)/C=C/[C@H](C[C@@H]1CCNC1=O)NC(=O)c1ccc2cc(C)ccc2c1 [Compound 51, 4S-[(6-Methyl-naphthalene-2-carbonyl)-amino]-5-(2-oxo-pyrrolidin-3S-yl)-pent-2-enoic acid ethyl ester]
- kinact/KI [1]: 5020 M⁻¹ s⁻¹
- EC50 [2, 13]: 0.88 µM
- CC50 at 2 days [3]: > 100 µM

Structure (SMILES): Cc1cc(CCCCCCCOc2ccc(C3=NCCO3)cc2)on1 [WIN 51711, reference compound]
- EC50 ([2]; HRV-14, H1-HeLa cells, XTT, two days): 0.78 µM
- CC50 [10]: > 60 µM

— patent publication US6989384B2, “Antipicornaviral compounds and compositions, their pharmaceutical uses, and materials for their synthesis” (Agouron Pharmaceuticals, Inc., priority 2000, dated 2006)
